In patent US12297194B2, “N2-phenylpyrimidine-2,4-diamine compounds, and preparation methods and methods of use thereof” (BRIDGE BIOTHERAPEUTICS, INC., priority 2021, dated 2025):

Tests used:
Format in all cases: cell-based, murine
[1] = target: Ba/F3 EGFR L858R/T790M/C797S mutants (Homo sapiens, UniProt P00533, T790M/C797S/L858R, cells depend on it); experiment: CellTiter-Glo cell viability, Ba/F3 EGFR L858R/T790M/C797S cells; conditions: 72 hours, read-out: Ba/F3 EGFR mutant cell (IC50, nM) L/T/C
Description: (§1) In order to evaluate an inhibitory ability on wild-type Ba/F3 EGFR and Ba/F3 EGFR mutations in Ba/F3 cell lines by the compounds of Formula 1, the experiment was carried out as described below.
(§2) The measurement of activities on Ba/F3 cells harboring wild-type EGFR and EGFR mutants by the compounds of the present invention were determined utilizing the CELLTITER-GLO™ system from Promega, as follows. The CELLTITER-GLO™ assay is a method for measuring the ATP present in cells to determine the cell viability. Ba/F3 EGFR wild-type and Ba/F3 EGFR L858R/C797S (L/C), Ba/F3 EGFR L858R/T790M/C797S (L/T/C), Ba/F3 EGFR Del19/T790M (D/T), Ba/F3 EGFR Del19/C797S (D/C), Ba/F3 EGFR Del19/T790M/C797S (D/T/C) mutant cell lines were maintained in RPMI1640, containing […], 1% penicillin-streptomycin, […] puromycin. Cells were grown in a humidified incubator at 37° C. with […].
(§3) The analysis of an EGFR inhibitory activity by the compounds was carried out in accordance with the analysis reaction recipe below.
(§4) 2500 cells/90 μL were seeded in 96 well cell culture plate, and after 24 hours, treated with the compounds represented by Formula 1 in concentrations of 0, 0.3, 0.9, 2.7, 8.2, 24.7, 74.1, 222.2, 666.7, 2000 (nM). After the reaction of 72 hours, the plate was incubated for 30 minutes at ambient temperature, and then, was further treated with 100 μL of the CELLTITER-GLO™ reagent and was shaken for 10 minutes at ambient temperature. Finally, measurement of the luminescence values were obtained using the SPECTRAMAX™ iD3 (Molecular Devices), and the IC50 values of the compound were analyzed using the GraphPad Prism program (version 9.0.2, GraphPad Software, Inc.).

[2] = target: Ba/F3 EGFR L858R/C797S mutants (Homo sapiens, UniProt P00533, C797S/L858R, cells depend on it); experiment: CellTiter-Glo cell viability, Ba/F3 EGFR L858R/C797S cells; conditions: 72 hours, read-out: Ba/F3 EGFR mutant cell (IC50, nM) L/C
Description: as §1, §2, §3, §4

[3] = target: Ba/F3 EGFR Del19/C797S mutants (Homo sapiens, UniProt P00533, C797S, cells depend on it, form not given); experiment: CellTiter-Glo cell viability, Ba/F3 EGFR Del19/C797S cells; conditions: 72 hours, read-out: Ba/F3 EGFR mutant cell (IC50, nM) D/C
Description: as §1, §2, §3, §4

[4] = target: Ba/F3 EGFR Del19/T790M/C797S mutants (Homo sapiens, UniProt P00533, T790M/C797S, cells depend on it, form not given); experiment: CellTiter-Glo cell viability, Ba/F3 EGFR Del19/T790M/C797S cells; conditions: 72 hours, read-out: Ba/F3 EGFR mutant cell (IC50, nM) D/T/C
Description: as §1, §2, §3, §4

[5] = target: Ba/F3 EGFR Del19/T790M mutants (Homo sapiens, UniProt P00533, T790M, cells depend on it, form not given); experiment: CellTiter-Glo cell viability, Ba/F3 EGFR Del19/T790M cells; conditions: 72 hours, read-out: Ba/F3 EGFR mutant cell (IC50, nM) D/T
Description: as §1, §2, §3, §4

Ba/F3 EGFR Wild-type = Ba/F3 EGFR Wild-type (Homo sapiens, UniProt P00533); experiment: CellTiter-Glo cell viability, Ba/F3 EGFR wild-type cells; conditions: 72 hours, read-out: Ba/F3 EGFR mutant cell (IC50, nM) WT
Description: as §1, §2, §3, §4

Chain of Ba/F3 EGFR Del19/T790M/C797S mutants (P00533 with tags, fused parts or gaps DEL746-750/T790M/C797S, form open): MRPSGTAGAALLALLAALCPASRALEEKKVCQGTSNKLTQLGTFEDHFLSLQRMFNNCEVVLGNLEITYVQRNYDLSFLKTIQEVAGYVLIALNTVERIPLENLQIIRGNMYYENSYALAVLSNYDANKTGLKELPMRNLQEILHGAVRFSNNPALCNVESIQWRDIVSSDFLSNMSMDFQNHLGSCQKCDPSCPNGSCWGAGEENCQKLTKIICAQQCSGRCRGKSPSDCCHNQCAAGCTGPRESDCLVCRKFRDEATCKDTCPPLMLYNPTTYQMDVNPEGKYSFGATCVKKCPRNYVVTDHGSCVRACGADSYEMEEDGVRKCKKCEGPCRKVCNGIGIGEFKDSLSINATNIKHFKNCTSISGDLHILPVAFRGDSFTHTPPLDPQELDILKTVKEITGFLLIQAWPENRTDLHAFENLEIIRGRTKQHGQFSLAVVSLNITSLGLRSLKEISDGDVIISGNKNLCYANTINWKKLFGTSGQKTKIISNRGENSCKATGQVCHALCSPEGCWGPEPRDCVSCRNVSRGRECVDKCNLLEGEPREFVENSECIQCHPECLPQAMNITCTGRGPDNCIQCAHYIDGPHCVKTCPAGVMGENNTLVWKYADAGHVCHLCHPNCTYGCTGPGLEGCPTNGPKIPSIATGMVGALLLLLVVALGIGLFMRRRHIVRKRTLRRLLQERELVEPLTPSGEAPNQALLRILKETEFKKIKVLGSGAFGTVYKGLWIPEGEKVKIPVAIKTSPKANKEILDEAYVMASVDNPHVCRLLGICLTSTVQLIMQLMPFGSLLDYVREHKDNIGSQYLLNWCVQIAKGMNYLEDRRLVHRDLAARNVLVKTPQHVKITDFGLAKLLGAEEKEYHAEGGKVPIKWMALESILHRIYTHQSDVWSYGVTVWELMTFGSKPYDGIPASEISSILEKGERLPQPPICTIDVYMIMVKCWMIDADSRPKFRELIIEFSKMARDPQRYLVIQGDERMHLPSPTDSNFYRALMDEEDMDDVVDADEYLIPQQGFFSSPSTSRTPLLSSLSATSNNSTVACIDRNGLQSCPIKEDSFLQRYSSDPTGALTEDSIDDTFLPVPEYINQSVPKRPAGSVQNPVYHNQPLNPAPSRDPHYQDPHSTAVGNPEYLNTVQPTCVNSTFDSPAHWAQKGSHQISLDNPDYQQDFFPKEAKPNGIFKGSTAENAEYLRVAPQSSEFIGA
Chain of Ba/F3 EGFR Wild-type (P00533 whole entry, change not shown): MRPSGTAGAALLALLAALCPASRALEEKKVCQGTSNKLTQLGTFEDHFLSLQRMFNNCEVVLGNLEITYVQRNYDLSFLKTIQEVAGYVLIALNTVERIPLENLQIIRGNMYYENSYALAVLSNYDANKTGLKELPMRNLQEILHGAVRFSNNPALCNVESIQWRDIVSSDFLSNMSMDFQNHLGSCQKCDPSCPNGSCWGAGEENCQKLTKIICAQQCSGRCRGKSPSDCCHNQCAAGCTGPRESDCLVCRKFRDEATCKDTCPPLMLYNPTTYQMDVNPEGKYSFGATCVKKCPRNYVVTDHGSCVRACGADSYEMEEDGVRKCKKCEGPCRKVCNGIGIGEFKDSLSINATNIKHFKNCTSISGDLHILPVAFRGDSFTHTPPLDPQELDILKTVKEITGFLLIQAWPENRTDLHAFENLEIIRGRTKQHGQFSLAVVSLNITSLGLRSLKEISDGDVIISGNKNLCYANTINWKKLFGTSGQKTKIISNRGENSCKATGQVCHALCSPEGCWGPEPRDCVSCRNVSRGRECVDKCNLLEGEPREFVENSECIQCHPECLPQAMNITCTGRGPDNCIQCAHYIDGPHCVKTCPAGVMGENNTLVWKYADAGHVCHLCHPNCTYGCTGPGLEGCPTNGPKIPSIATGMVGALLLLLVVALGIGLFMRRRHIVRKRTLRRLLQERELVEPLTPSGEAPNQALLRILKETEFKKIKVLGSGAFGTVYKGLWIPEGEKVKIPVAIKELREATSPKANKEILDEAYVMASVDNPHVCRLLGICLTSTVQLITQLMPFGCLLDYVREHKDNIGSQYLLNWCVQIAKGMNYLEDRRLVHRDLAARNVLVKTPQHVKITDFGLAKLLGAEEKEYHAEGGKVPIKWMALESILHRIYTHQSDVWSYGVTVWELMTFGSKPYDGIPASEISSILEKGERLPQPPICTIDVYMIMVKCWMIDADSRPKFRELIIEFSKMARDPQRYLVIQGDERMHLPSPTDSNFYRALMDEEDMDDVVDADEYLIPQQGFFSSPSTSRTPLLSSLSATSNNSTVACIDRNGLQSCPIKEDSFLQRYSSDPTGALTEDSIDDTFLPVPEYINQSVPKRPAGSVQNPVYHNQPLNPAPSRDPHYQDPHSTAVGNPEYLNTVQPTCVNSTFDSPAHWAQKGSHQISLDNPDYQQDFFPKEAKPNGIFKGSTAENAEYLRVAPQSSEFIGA
Chain of Ba/F3 EGFR Del19/T790M mutants (P00533 with tags, fused parts or gaps DEL746-750/T790M, form open): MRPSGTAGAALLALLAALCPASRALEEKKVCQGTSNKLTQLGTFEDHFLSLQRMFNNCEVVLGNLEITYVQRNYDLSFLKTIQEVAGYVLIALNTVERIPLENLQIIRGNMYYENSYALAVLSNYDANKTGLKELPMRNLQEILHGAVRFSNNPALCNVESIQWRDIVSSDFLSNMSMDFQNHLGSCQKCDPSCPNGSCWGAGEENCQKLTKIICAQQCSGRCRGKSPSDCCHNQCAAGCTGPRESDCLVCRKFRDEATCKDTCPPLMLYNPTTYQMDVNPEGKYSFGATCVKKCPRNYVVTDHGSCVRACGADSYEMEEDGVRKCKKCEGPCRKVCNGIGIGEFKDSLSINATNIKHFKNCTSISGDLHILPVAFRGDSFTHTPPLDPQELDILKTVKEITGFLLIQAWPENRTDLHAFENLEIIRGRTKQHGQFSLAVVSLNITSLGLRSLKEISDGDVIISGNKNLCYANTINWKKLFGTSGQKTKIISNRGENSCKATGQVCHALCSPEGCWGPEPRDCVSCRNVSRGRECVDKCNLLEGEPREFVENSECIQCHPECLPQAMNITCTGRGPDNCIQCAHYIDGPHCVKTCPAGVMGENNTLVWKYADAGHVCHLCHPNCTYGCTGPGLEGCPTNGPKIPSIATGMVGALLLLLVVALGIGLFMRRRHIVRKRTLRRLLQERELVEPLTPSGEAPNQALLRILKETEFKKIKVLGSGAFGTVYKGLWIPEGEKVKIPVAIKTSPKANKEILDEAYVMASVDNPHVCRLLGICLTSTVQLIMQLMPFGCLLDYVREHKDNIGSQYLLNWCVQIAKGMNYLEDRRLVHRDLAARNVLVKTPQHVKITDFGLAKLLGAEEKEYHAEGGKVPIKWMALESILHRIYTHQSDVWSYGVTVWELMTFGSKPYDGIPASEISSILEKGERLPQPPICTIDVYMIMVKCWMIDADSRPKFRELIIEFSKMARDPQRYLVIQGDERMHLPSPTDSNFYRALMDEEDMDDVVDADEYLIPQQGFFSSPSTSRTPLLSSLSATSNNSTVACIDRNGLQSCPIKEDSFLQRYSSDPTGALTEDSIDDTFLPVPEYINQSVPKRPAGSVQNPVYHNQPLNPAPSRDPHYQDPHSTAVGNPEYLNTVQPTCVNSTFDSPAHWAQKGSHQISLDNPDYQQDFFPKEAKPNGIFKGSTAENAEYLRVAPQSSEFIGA
Chain of Ba/F3 EGFR L858R/T790M/C797S mutants (P00533 whole entry T790M/C797S/L858R): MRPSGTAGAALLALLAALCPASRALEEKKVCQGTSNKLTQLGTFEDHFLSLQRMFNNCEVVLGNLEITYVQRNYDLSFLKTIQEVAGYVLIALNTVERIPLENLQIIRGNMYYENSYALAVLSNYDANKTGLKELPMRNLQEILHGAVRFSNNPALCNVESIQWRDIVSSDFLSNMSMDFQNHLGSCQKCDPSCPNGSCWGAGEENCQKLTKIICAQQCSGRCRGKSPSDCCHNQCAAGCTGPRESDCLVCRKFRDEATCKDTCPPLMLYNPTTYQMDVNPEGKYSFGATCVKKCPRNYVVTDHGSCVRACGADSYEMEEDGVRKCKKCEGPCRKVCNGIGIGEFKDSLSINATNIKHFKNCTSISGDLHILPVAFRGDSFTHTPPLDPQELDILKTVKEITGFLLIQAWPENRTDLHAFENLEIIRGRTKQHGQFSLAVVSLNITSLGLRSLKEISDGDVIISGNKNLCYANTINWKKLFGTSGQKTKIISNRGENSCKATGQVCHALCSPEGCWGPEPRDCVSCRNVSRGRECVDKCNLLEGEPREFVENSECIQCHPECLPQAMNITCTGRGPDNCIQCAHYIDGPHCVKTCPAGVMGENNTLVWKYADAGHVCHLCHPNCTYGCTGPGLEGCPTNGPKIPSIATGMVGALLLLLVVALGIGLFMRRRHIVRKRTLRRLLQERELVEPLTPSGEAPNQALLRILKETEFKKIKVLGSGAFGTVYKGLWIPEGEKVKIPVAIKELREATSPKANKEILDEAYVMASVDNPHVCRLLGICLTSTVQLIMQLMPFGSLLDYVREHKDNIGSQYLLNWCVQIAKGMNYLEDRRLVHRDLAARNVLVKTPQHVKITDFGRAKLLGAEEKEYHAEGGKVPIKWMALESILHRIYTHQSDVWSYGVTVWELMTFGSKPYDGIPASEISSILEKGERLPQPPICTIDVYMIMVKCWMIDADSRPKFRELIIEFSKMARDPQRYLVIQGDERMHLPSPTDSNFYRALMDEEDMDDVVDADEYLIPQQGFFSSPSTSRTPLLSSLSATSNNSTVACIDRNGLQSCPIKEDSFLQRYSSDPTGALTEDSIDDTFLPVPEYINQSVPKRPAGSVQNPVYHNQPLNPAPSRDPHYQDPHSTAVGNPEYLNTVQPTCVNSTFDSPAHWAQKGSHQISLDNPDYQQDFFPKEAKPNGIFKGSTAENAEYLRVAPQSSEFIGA

Row | Compound | GI50 [1] | GI50 [2] | GI50 [3] | GI50 [4] | GI50 [5] | GI50 (Ba/F3 EGFR Wild-type)
1 | COc1cc(N2CCC(N3CCN(C)CC3)CC2)c(C)cc1Nc1ncc(Cl)c(Nc2ccc3nccnc3c2NS(C)(=O)=O)n1 [Example A1, N-(6-((5-chloro-2-((2-methoxy-5-methyl-4-(4-(4-methylpiperazin-1-yl)piperidin-1-yl)phenyl)amino)pyrimidin-4-yl)amino)quinoxalin-5-yl)methanesulfonamide] | 17 nM | 33 nM | 17 nM | 6 nM | 7 nM | 312 nM
2 | CCc1cc(Nc2ncc(Cl)c(Nc3ccc4nccnc4c3NS(C)(=O)=O)n2)c(OC)cc1N1CCC(N2CCN(C)CC2)CC1 [Example A2, N-(6-((5-chloro-2-((5-ethyl-2-methoxy-4-(4-(4-methylpiperazin-1-yl)piperidin-1-yl)phenyl)amino)pyrimidin-4-yl)amino)quinoxalin-5-yl)methanesulfonamide] | 9 nM | 26 nM | 12 nM | 4 nM | 4 nM | 381 nM
3 | COc1cc(N2CCC(N3CCN(C)CC3)CC2)c(C)cc1Nc1ncc(Br)c(Nc2ccc3nccnc3c2NS(C)(=O)=O)n1 [Example A4, N-(6-((5-bromo-2-((2-methoxy-5-methyl-4-(4-(4-methylpiperazin-1-yl)piperidin-1-yl)phenyl)amino)pyrimidin-4-yl)amino)quinoxalin-5-yl)methanesulfonamide] | 6 nM | 34 nM | 12 nM | 1 nM | 3 nM | 249 nM
4 | CCCc1cc(Nc2ncc(Cl)c(Nc3ccc4nccnc4c3NS(C)(=O)=O)n2)c(OC)cc1N1CCC(N2CCN(C)CC2)CC1 [Example A6, N-(6-((5-chloro-2-((2-methoxy-4-(4-(4-methylpiperazin-1-yl)piperidin-1-yl)-5-propylphenyl)amino)pyrimidin-4-yl)amino)quinoxalin-5-yl)methanesulfonamide] | 12 nM | 29 nM | 14 nM | 4 nM | 5 nM | 498 nM
5 | CCc1cc(Nc2ncc(Br)c(Nc3ccc4nccnc4c3N(C)S(C)(=O)=O)n2)c(OC)cc1N1CCC(N2CCN(C)CC2)CC1 [Example A10, N-(6-((5-bromo-2-((5-ethyl-2-methoxy-4-(4-(4-methylpiperazin-1-yl)piperidin-1-yl)phenyl)amino)pyrimidin-4-yl)amino)quinoxalin-5-yl)-N-methylmethane sulfonamide] | 9 nM | 37 nM | 16 nM | 4 nM | 5 nM | 400 nM
6 | COc1cc(N2CCC(N3CCN(C)C4(CC4)C3)CC2)ccc1Nc1ncc(Cl)c(Nc2ccc3nccnc3c2NS(C)(=O)=O)n1 [Example A15, N-(6-((5-chloro-2-((2-methoxy-4-(4-(4-methyl-4,7-diazaspiro[2.5]octan-7-yl)piperidin-1-yl)phenyl)amino)pyrimidin-4-yl)amino)quinoxalin-5-yl)methanesulfonamide] | 473 nM | 423 nM | 295 nM | 211 nM | 156 nM | 811 nM
7 | CCc1cc(Nc2ncc(Cl)c(Nc3ccc4nccnc4c3N(C)S(C)(=O)=O)n2)c(OC)cc1N1CCC(N2CCN(C)CC2)CC1 [Example A38, N-(6-((5-chloro-2-((5-ethyl-2-methoxy-4-(4-(4-methylpiperazin-1-yl)piperidin-1-yl)phenyl)amino)pyrimidin-4-yl)amino)quinoxalin-5-yl)-N-methylmethanesulfonamide] | 33 nM | 18 nM |  | 5 nM | 5 nM | 347 nM
8 | COc1cc(N2CC3(CNC3)C2)ccc1Nc1ncc(Cl)c(Nc2ccc3nccnc3c2NS(C)(=O)=O)n1 [Example D7, N-(6-((5-chloro-2-((2-methoxy-4-(2,6-diazaspiro[3.3]heptan-2-yl)phenyl)amino)pyrimidin-4-yl)amino)quinoxalin-5-yl)methanesulfonamide] | > 2000 nM | > 2000 nM |  | > 2000 nM | > 2000 nM | > 2000 nM
